# Patent publication US9434711B2 (Janssen Pharmaceutica, NV, priority 2007, dated 2016)
# pIC50: −log10 of the molar value. Where two headings read alike, the source gives them in different places.
# Tests used:
# [1] = test system: Male Sprague Dawley rats; experiment: Rightward Shift of Icilin Dose Effect Curve in Rats; format: in vivo; settings: Rattus norvegicus, ip; icilin i.p., wet-dog shakes, no pretreatment; read-out: Icilin ED50, mg/kg, i.p., no pretreatment
# Method: Male Sprague Dawley rats (200-400 g, Charles River Labs, n=6-9/treatment) were administered icilin in a suitable vehicle (e.g. PEG-400, 10% Solutol) at 0.1-30 mg/kg, i.p. Spontaneous “wet-dog” shakes were counted 10-20 minutes post-icilin in order to generate a icilin dose-effect curve. A compound of the present invention was administered orally in hydroxypropyl-β-cyclodextrin 60 minutes before icilin challenge to assess the compound's ability to inhibit spontaneous “wet-dog” shakes (WDS) produced by a range of icilin doses. The ED50 of the icilin dose-effect curve generated in the presence of TRPM8 antagonist may be compared to that generated in the presence of vehicle to determine the magnitude of rightward shift as shown below in Table 7.
# [2] = test system: Male Sprague Dawley rats; experiment: Inhibition of Icilin-Induced "Wet-Dog" Shakes in Rats; format: in vivo, rat; settings: Rattus norvegicus, po, 2 h, Water, 120 min pre-icilin, Na salt form
# Method: Male Sprague Dawley rats (220-450 g, Charles River Labs, n=6-9/treatment) were used to evaluate the ability of selected compounds of the formula (I) to block icilin-induced “wet-dog” shakes (WDS). Compounds of the formula (I) were administered in an appropriate vehicle, such as hydroxypropyl-β-cyclodextrin (HPβCD), methocellulose, 10% Solutol, or H2O, or the like, by the appropriate route, i.p. or p.o., 30-120 minutes before icilin. Icilin was administered in PEG-400 or 10% solutol/H2O, at 1.0 or 3.0 mg/kg, i.p. and spontaneous “wet-dog” shakes were counted 10-20 minutes post-icilin. Results are presented as a percent inhibition of shakes, which was calculated as [1-(test compound WDS count/vehicle WDS count)]×100.
# [3] = test system: Male Sprague Dawley rats; experiment: Chronic Constriction Injury (CCI)-Induced Model of Neuropathic Pain, Acetone-Induced Hypersensitivity; format: in vivo, rat; settings: Rattus norvegicus, po, Water, Na salt form; for inhibition in vivo at 30 mg/kg: 30 mg/kg p.o.
# [4] = molecular target: canine TRPM8 (Canis lupus familiaris, UniProt Q1A7N1); experiment: In Vitro Canine TRPM8 Functional Assay (Ca2+ fluorescence, icilin activation); format: cell-based
# Outline: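 Eight-point dose-response curves, each point averaging quadruplicate wells, gave EC50 or IC50. Canine TRPM8-expressing HEK293 cells, dye-loaded (Calcium 3), were pre-exposed 5 min to compound, then challenged with icilin at roughly EC80; intracellular Ca2+ read by FLIPR or FDSS fluorescence.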
# [5] = test system: Sprague-Dawley rats; experiment: CFA-Induced Paw Radiant Heat Hypersensitivity; format: in vivo, rat; settings: dose 10 p.o., HPbCD, treatment time 100 min, Na salt form
# Method: Intraplantar injection of complete Freund's adjuvant (CFA) in rodents results in a long-lasting inflammatory reaction, characterized by a pronounced hypersensitivity to both thermal and mechanical stimuli. This hypersensitivity peaks between 24-72 hours following injection and can last for several weeks. To assess whether test compounds of the formula (I) reverse established hypersensitivity, a 100 μL intraplantar injection of CFA (suspended in a 1:1 emulsion of saline and heat-killed Mycobacterium tuberculosis in mineral oil) can be injected into a single hind paw of Sprague-Dawley rats (typically males ranging from 150-350 g). This paradigm also may be conducted with a multiple dosing or a prophylactic dosing regime designed to alter the course of hyperalgesia development. This test predicts the analgesic, anti-allodynic and antihyperalgesic effect of numerous effective clinical agents, including acetaminophen, NSAIDS such as aspirin and ibuprofen, and opioids, such as morphine.
# Each rat is placed in a test chamber on a warm glass surface and allowed to acclimate for approximately 10 minutes. A radiant thermal stimulus (beam of light) is then focused through the glass onto the plantar surface of each hind paw in turn. The thermal stimulus is automatically shut off by a photoelectric relay when the paw is moved or when the cut-off time is reached (20 seconds for radiant heat at […]). An initial (baseline) response latency to the thermal stimulus is recorded for each animal prior to the injection of CFA. Twenty-four hours following intraplantar CFA injection, the response latency of the animal to the thermal stimulus is then re-evaluated and compared to the animal's baseline response time. […] Immediately following the post-CFA latency assessment, test compound or vehicle (usually Solutol, hydroxypropyl methylcellulose, hydroxypropyl beta-cyclodextrin or PEG-400) is administered i.p. or p.o. to rats. Post-compound treatment withdrawal latencies are assessed at fixed time intervals, typically 30, 60 and 120 minutes. The percent reversal (% R) of hypersensitivity is calculated according to the following formula: % Reversal=(Treatment Response-CFA Response)/(Baseline Response-CFA Response)×100.
# canine TRPM8, sequence (Q1A7N1 1-1104): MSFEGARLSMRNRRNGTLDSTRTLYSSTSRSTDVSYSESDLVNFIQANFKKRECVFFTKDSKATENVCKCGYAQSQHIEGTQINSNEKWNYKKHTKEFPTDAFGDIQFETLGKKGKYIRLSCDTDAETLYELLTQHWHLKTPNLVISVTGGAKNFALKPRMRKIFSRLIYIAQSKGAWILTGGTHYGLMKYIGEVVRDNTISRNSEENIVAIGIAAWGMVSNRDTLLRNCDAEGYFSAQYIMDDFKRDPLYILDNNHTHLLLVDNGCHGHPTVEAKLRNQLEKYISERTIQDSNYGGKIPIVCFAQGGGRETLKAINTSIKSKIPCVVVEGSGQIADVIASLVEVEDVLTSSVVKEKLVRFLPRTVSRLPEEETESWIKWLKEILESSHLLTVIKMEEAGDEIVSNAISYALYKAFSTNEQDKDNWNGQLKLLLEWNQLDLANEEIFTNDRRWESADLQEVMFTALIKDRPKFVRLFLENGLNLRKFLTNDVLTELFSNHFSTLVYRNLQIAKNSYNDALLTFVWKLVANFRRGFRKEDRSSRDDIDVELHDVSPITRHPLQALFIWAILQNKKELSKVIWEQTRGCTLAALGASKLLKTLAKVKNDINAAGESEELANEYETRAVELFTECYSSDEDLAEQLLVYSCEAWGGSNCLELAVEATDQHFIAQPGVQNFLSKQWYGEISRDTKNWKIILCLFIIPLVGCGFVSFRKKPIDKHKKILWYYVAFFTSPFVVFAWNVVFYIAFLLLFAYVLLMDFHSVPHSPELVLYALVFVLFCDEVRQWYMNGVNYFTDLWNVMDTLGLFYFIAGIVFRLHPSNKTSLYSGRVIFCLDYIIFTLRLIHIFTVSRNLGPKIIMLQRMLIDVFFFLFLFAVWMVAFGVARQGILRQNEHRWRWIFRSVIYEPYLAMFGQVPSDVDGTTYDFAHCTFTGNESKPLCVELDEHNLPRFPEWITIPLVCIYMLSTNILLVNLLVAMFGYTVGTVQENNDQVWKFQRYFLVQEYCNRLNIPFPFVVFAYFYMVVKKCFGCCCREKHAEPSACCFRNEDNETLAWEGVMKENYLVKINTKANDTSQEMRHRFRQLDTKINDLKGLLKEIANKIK
"pIC50 ([4]; HEK293 cells stably expressing canine TRPM8, icilin activation, eight-point dose-response, read-out: IC50)","inhibition at 0.2 µM ([4]; compound at 0.2 μM, canine TRPM8, icilin activation, read-out: % Inh @ 0.2) [%]",Structure (SMILES),ED50 [1] [mg/kg],ED50 [2] [mg/kg],"inhibition in vivo at 3 mg/kg ([3]; 2 h, 3 mg/kg p.o., pretreatment 2 hr, read-out: Percent Inhibition) [%]","inhibition in vivo at 10 mg/kg ([3]; 2 h, 10 mg/kg p.o., pretreatment 2 hr, read-out: Percent Inhibition) [%]","inhibition in vivo at 30 mg/kg ([3]; 2 h, pretreatment 2 hr, read-out: Percent Inhibition) [%]","inhibition in vivo at 30 mg/kg ([3]; 4 h, pretreatment 4 hr, read-out: Percent Inhibition) [%]",ED50 ([3]; pretreatment 2 hr) [mg/kg],Percent Reversal [5] [%]
,,"O=C1NC(c2cccc([N+](=O)[O-])c2)=CCN1c1ccccc1O [Icilin, reference compound]",0.75,,,,,,,
9.10,93,"CC(C)(O)c1c(N(Cc2ccc(F)c(C(F)(F)F)c2)S(=O)(=O)c2ccc(C(=O)O)cc2)sc2ccccc12 [Compound 361, N-(4-Fluoro-3-trifluoromethylbenzyl)-N-(3-(1-hydroxy-1-methyl-ethyl)-benzo[b]thiophen-2-yl)-4-carboxy-benzenesulfonamide]",,4.5,9,17,91,74,13,28
